Results on three compounds are retold here after ChEMBL document CHEMBL1122827 (1985).

Active and inactive are the calls of the source. The rule behind the calls is not given here. Where a SMILES comes first, the peptide text is derived from it. The star is where a group is joined. Mob = COc1ccc(C*)cc1; Bn = c1ccc(C*)cc1

Holding throughout (format): functional
The species named for assay [1] is Cavia porcellus. The assay can be described thus: Intrinsic activity in guinea pig ileum(GPI) was determined.
The species entered for assay [2] is Cavia porcellus. The assay is described as follows: The concentration required to produce 50% of the maximal effect in guinea pig ileum(GPI).
Assay [3] is filed under the species Cavia porcellus. The assay is described as follows: Relative affinity in guinea pig ileum(GPI) was determined.
The species named for assay [4] is Cavia porcellus. The assay is described as follows: Intrinsic activity in guinea pig trachea(GPT) was determined.
The species named for assay [5] is Cavia porcellus. The assay is described as follows: The concentration required to produce 50% of the maximal effect in guinea pig trachea(GPT).
The species entered for assay [6] is Oryctolagus cuniculus. The assay is described as follows: Intrinsic activity in rabbit mesenteric vein(RMV) was determined.
Assay [7] is filed under the species Oryctolagus cuniculus. The assay can be described thus: Relative affinity in rabbit mesenteric vein(RMV) was determined.
Assay [8] is filed under the species Cavia porcellus. The assay is described as follows: Relative affinity in guinea pig trachea(GPT) was determined.
For assay [9], the species on record is Oryctolagus cuniculus. The assay is described as follows: The concentration required to produce 50% of the maximal effect in rabbit mesenteric vein(RMV).
For assay [10], the species on record is Oryctolagus cuniculus. The assay is described as follows: The concentration required to produce 50% of the maximal effect in rabbit mesenteric vein(RMV) at 10e-4 M; Inactive.
For assay [11], the species on record is Cavia porcellus. The assay is described as follows: The concentration required to produce 50% of the maximal effect in guinea pig trachea(GPT) at 10e-4 M; Inactive.

For `CC(C)C[C@@H]1NC(=O)CNC(=O)[C@H](Cc2ccccc2)NC(=O)[C@H](Cc2ccccc2)NC(=O)[C@@H](N)CSSC[C@@H](C(N)=O)NC1=O`, in the assay listed under Cavia porcellus [1], the “Alpha E” value is given as 0.7. In the assay filed under Cavia porcellus [2], this compound yielded a pD2 of 4.83. This compound also showed an AR in the assay listed under Cavia porcellus [3] of 0.02.

With `COc1ccc(CSC[C@H](N)C(=O)N[C@@H](CCC(N)=O)C(=O)N[C@@H](Cc2ccccc2)C(=O)N[C@@H](Cc2ccccc2)C(=O)NCC(=O)N[C@@H](CC(C)C)C(=O)N[C@@H](CSCc2ccccc2)C(N)=O)cc1` (H-C(Mob)QFFGLC(Bn)-NH2), the “Alpha E” value in the assay listed under Cavia porcellus [1] was 1.2; in the assay listed under Cavia porcellus [4], 0.8; in the assay filed under Oryctolagus cuniculus [6] it was 0.4. The pD2 was found to be 5.22 in the assay filed under Cavia porcellus [5], 6.37 in the assay listed under Cavia porcellus [2] and 5.98 in the assay listed under Oryctolagus cuniculus [9]. Besides, the AR in the assay filed under Cavia porcellus [3] was 0.8; in the assay listed under Oryctolagus cuniculus [7] it was 2.8; in the assay filed under Cavia porcellus [8] it was 3.

For the compound `CC(C)C[C@H]1NC(=O)CNC(=O)[C@@H](Cc2ccccc2)NC(=O)[C@H](Cc2ccccc2)NC(=O)[C@@H](N)CSSC[C@H](C(N)=O)NC1=O`, the pD2 entry in the assay filed under Oryctolagus cuniculus [10] and in the assay listed under Cavia porcellus [11] was “inactive” throughout.
